Measured values from US7649002B2, “(3,5-dimethylpiperidin-1yl)(4-phenylpyrrolidin-3-yl)methanone derivatives as MCR4 agonists” (Pfizer Inc, priority 2004, dated 2010).
Like-named read-outs stand apart in the source and are kept apart here.

Molecular target: T1, human MCR4 receptor (Homo sapiens, UniProt P32245)
T1 construct: expressed in transfected cells
Test: MCR4 improved functional assay (Protocol E): CHO-K1-MC4R-CRE-β-lactamase reporter
Type: cell-based
Source text: (ii) MCR5 Standard Functional Assay Methodology and MCR4 Improved Functional Assay Methodology [Assay Protocol D and E Respectively] […] These cell lines were engineered using protocols akin to those outlined by Zaccolo et al (Zaccolo, M., (2000) Nature, 2(1); 25-29). Compound-induced activation of the MCR5 or MCR4 receptors in these two cell lines stimulated the production, and intracellular accumulation, of the enzyme β-lactamase. The quantity of β-lactamase enzyme produced was directly proportional to the degree to which the test compound activated the MCR5 or MCR4 receptors present on these cells and was quantified using the P-lactamase gene reporter analysis kit that is commercially available from Invitrogen Life Technologies. An in-depth description of this technology and assay protocols are available from the Invitrogen web site (www.invitrogen.com). The protocol listed below provides a summary of that assay methodology. The quantity of β-lactamase enzyme produced by compound-induced activation of the MCR5 or MCR4 receptors expressed in these cell lines was quantified using a LjI Biosystems Analyst™ HT 96.384 plate reader set to excite at a wave length of 405 nm, and measure the energy emitted at wave lengths of 450 nm and 530 nm. Cellular responses were quantified by dividing the measured energy emitted at a wavelength of 450 nm by the measured energy emitted at a wavelength of 530 nm. […] CCF4-AM was dissolved in 100% DMSO to give a final solution concentration of 1 mM. This solution was termed Solution A. Probenecid was dissolved in 200 mM NaOH to give a final solution concentration of 200 mM. This solution was termed Solution D. Composition of the β-lactamase assay dye solution: for 1072 μL of assay dye solution combine: 12 μL of Solution A, 60 μL of Solution B, 925 μL of Solution C and 75 μL of Solution D. […] Cells were grown in T225 vent cap flasks containing 50 ml of growth medium and maintained in a cell incubator at a temperature of 37° C. and in an environment containing 5% CO2. The composition of the growth medium for the CHO-K1-MC5R-CRE-β-lactamase was 90% v/v DMEM supplemented with; Glutamax-1, 25 mM HEPES, 10% v/v foetal calf serum (FCS), 1 mM sodium pyruvate, 0.1 mM non essential amino acids and 800 μg/ml genetic in. For the CHO-K1-MC4R-CRE-β-lactamase this growth media was further supplemented with […] Zeocin. Cells were harvested when they reached 80-90% confluency by first removing the existing growth medium and then washing with PBS that had been pre-warmed to a temperature of 37° C. This PBS was then removed and 5 ml of cell dissociation fluid added to the flask. These cells were incubated for 5 minutes in a cell incubator set at a temperature of 37° C. and in an environment containing 5% CO2 to detach the cells. When cells were detached, pre-warmed growth media was added, the cells re-suspended and mixed gently to achieve a single cell suspension by pipetting. This cell suspension was then used for experimentation, or transferred into a new T225 flask to perpetuate the cell culture. […] For each assay the cell plates were then retuned to a cell incubator maintained at a temperature of 37° C. and in an environment containing 5% CO2 overnight before performing the assay on the second assay day. […] For the MCR4 improved functional assay methodology the solution of cyclohexamide was not added. Subsequently, 10 μL of the test compound solution was transferred to the assay plate. The assay plate was then transferred to a cell incubator, set at 37° C. and in an environment containing 5% CO2, and left for 4 hours for the MCR4 improved assay methodology, or 5 hours for the MCR5 standard assay methodology. After this incubation period the plate was removed from the incubator, 10 μL of the […] assay dye solution was added to each well and then the plate returned to the cell incubator.

[1] = Protocols C or E, read-out: functional potency at the MC4 receptor (EC50)

T1 sequence (P32245 whole entry): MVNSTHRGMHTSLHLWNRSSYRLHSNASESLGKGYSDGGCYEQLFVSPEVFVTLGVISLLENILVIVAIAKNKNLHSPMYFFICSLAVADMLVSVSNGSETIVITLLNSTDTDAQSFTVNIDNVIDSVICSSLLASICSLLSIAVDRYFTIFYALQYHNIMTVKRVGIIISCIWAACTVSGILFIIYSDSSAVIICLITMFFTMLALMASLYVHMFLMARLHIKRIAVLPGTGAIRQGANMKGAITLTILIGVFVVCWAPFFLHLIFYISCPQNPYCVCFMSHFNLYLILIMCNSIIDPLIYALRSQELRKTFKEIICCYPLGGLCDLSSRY

Row | SMILES | EC50 [1] [nM] | EC50 (Table 6, read-out: MCR4 EC50) [nM] | EC50 (MCR4 EC50 (nM), Table 6) [nM] | EC50 (functional potency at the MC4 receptor (EC50), Protocols C or E) [nM]
1 | C[C@@H]1CN(C(=O)[C@@H]2CN(C(C)(C)C)C[C@H]2c2ccc(F)cc2F)C[C@H](C)[C@@]1(O)c1ccccc1.Cl [Example 5, (3R,4R,5S)-1-{[(3S,4R)-1-tert-Butyl-4-(2,4-difluorophenyl)pyrrolidin-3-yl]carbonyl}-3,5-dimethyl-4-phenylpiperidin-4-ol hydrochloride] | < 10 | 9.6 |  | 
2 | CC(C)N1C[C@@H](C(=O)N2C[C@@H](C)[C@](O)(c3ccccc3)[C@@H](C)C2)[C@H](c2ccc(F)cc2F)C1.Cl [Example 6, (3R,4R,5S)-1-{[(3S,4R)-4-(2,4-Difluorophenyl)-1-isopropylpyrrolidin-3-yl]carbonyl}-3,5-dimethyl-4-phenylpiperidin-4-ol hydrochloride] |  |  | 19 | < 50
3 | C[C@@H]1CN(C(=O)[C@@H]2CN(C(C)(C)C)C[C@H]2c2ccc(F)cc2F)C[C@H](C)[C@@]1(O)c1ccc(Cl)cc1.Cl [Example 13, (3R,4R,5S)-1-{[(3S,4R)-1-tert-butyl-4-(2,4-difluorophenyl)pyrrolidin-3-yl]carbonyl}-4-(4-chlorophenyl)-3,5-dimethylpiperidin-4-ol hydrochloride] | < 50 | 27 |  | 
4 | C[C@@H]1CN(C(=O)[C@@H]2CN(c3ccccn3)C[C@H]2c2ccc(F)cc2F)C[C@H](C)[C@@]1(O)c1ccccc1.Cl [Example 31, (3R,4R,5S)-1-{[(3S,4R)-4-(2,4-difluorophenyl)-1-pyridin-2-ylpyrrolidin-3-yl]carbonyl}-3,5-dimethyl-4-phenylpiperidin-4-ol hydrochloride] | < 10 | 3.6 |  | 
5 | C[C@@H]1CN(C(=O)[C@@H]2CNC[C@H]2c2ccc(F)cc2F)C[C@H](C)[C@@]1(O)c1ccc(F)cc1.Cl [Example 12, (3R,4R,5S)-1-{[(3S,4R)-4-(2,4-difluorophenyl)pyrrolidin-3-yl]carbonyl}-4-(4-fluorophenyl)-3,5-dimethylpiperidin-4-ol hydrochloride] | < 150 | 75 |  | 
6 | C[C@@H]1CN(C(=O)[C@@H]2CN(C(C)(C)C)C[C@H]2c2ccc(F)cc2F)C[C@H](C)[C@@]1(O)c1ccccc1 [Example 1, (3R,4R,5S)-1-{[(3S,4R)-1-tert-Butyl-4-(24-difluorophenyl)pyrrolidin-3-yl]carbonyl}-3,5-dimethyl-4-phenylpiperidin-4-ol] | < 10 |  |  | 
7 | C[C@@H]1CN(C(=O)[C@@H]2CN(c3cccnn3)C[C@H]2c2ccc(F)cc2F)C[C@H](C)[C@@]1(O)c1ccccc1.Cl [Example 35, (3R,4R,5S)-1-{[(3S,4R)-4-(2,4-difluorophenyl)-1-pyridazin-3-ylpyrrolidin-3-yl]carbonyl}-3,5-dimethyl-4-phenylpiperidin-4-ol hydrochloride] | < 10 | 1.5 |  | 
